A short description of this assay: Inhibitory concentration against human breast cancer cell line (HBL-100) by MTT method. Type of assay: functional, cell-based. The following applies: Cancer cell lines. Background: Tetrazolium dyes change colour on reduction, which living cells bring about.

By IC50 is commonly meant the point on the concentration scale where inhibition reaches its midpoint. `CCCCCCCCCCCCCC[C@@H]1COC(=O)C[C@H]1O` returned a concentration for half-maximal inhibition (IC50) of 0.176 µM.

The values are drawn from ChEMBL document CHEMBL1143533, “A short, stereoselective, and common approach for the synthesis of 4,5-disubstituted delta-lactones simplactone B and its C-5 analogue” (Bioorg Med Chem Lett, 2005).
